# Target: T1, full length SGK1 (Homo sapiens, UniProt O00141)
# T1 construct: 125 μM full length SGK1 (Life Technologies Part #PR7358A); purchased Life Technologies PR7358A
# T1 sequence (O00141 1-431): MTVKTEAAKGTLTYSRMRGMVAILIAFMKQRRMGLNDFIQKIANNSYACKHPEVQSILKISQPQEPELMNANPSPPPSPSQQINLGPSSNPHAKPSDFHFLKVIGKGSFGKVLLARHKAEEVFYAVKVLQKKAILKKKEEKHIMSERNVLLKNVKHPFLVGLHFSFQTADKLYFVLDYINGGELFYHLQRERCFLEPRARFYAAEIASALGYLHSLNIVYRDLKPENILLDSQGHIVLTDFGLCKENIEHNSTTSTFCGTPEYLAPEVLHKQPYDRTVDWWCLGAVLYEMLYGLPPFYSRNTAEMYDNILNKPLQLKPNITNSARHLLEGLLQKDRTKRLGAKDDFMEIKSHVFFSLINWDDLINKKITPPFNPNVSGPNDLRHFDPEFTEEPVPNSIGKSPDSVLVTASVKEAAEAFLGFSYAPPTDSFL
# Assay: SGK1 inhibition Assay A (Caliper LabChip electrophoretic separation of fluorescent peptide substrate and phosphorylated product)
# Assay type: biochemical
# Details: Assay A; 20 μM ATP, 40 min incubation; read-out: SGK1 IC50
row,Structure (SMILES),IC50 [nM]
1,"CC(=O)N1CC=C(c2cc(N3CCC[C@@H](NC(=O)c4ccn(C)n4)C3)c3c(N)ncnn23)C1 [Example 738, (R)-N-(1-(7-(1-acetyl-2,5-dihydro-1H-pyrrol-3-yl)-4-aminopyrrolo[2,1-f][1,2,4]triazin-5-yl)piperidin-3-yl)-1-methyl-1H-pyrazole-3-carboxamide]",115
2,"CC(=O)N1CC=C(c2cc(N3CCC[C@@H](NC(=O)c4cc(C5CC5)n(C)n4)C3)c3c(N)ncnn23)C1 [Example 739, (R)-N-(1-(7-(1-acetyl-2,5-dihydro-1H-pyrrol-3-yl)-4-aminopyrrolo[2,1-f][1,2,4]triazin-5-yl)piperidin-3-yl)-5-cyclopropyl-1-methyl-1H-pyrazole-3-carboxamide]",98
3,"CC(=O)N1CC=C(c2cc(N3CCC[C@@H](NC(=O)c4ccncn4)C3)c3c(N)ncnn23)C1 [Example 740, (R)-N-(1-(7-(1-acetyl-2,5-dihydro-1H-pyrrol-3-yl)-4-aminopyrrolo[2,1-f][1,2,4]triazin-5-yl)piperidin-3-yl)pyrimidine-4-carboxamide]",241
4,CC(=O)N1CC=C(c2cc(N3CCC[C@@H](NC(=O)c4ccnc(N5CCN(C)CC5)n4)C3)c3c(N)ncnn23)C1 [Example 741],3
5,"CCn1ccc(C(=O)N[C@@H]2CCCN(c3cc(C4=CCN(C(C)=O)C4)n4ncnc(N)c34)C2)n1 [Example 742, (R)-N-(1-(7-(1-acetyl-2,5-dihydro-1H-pyrrol-3-yl)-4-aminopyrrolo[2,1-f][1,2,4]triazin-5-yl)piperidin-3-yl)-1-ethyl-1H-pyrazole-3-carboxamide]",135
6,CC(=O)N1CC=C(c2cc(N3CCC[C@@H](NC(=O)c4ccn(CC(F)F)n4)C3)c3c(N)ncnn23)C1 [Example 743],51
7,"CC(=O)N1CC=C(c2cc(N3CCC[C@@H](NC(=O)c4nc(N5CCN(C)CC5)ccc4F)C3)c3c(N)ncnn23)C1 [Example 744, (R)-N-(1-(7-(1-acetyl-2,5-dihydro-1H-pyrrol-3-yl)-4-aminopyrrolo[2,1-f][1,2,4]triazin-5-yl)piperidin-3-yl)-3-fluoro-6-(4-methylpiperazin-1-yl)picolinamide]",8
8,"CC(=O)N1CC=C(c2cc(N3CCC[C@@H](NC(=O)c4nc(F)ccc4N4CCN(C)CC4)C3)c3c(N)ncnn23)C1 [Example 745, (R)-N-(1-(7-(1-acetyl-2,5-dihydro-1H-pyrrol-3-yl)-4-aminopyrrolo[2,1-f][1,2,4]triazin-5-yl)piperidin-3-yl)-6-fluoro-3-(4-methylpiperazin-1-yl)picolinamide]",366
9,"CC(=O)N1CC=C(c2cc(N3CCC[C@@H](NC(=O)c4ccc5n(c4=O)CCC5)C3)c3c(N)ncnn23)C1 [Example 746, (R)-N-(1-(7-(1-acetyl-2,5-dihydro-1H-pyrrol-3-yl)-4-aminopyrrolo[2,1-f][1,2,4]triazin-5-yl)piperidin-3-yl)-5-oxo-1,2,3,5-tetrahydroindolizine-6-carboxamide]",784
10,CC(=O)N1CC=C(c2cc(N3CCC[C@@H](NC(=O)c4cc(C5CC5)[nH]n4)C3)c3c(N)ncnn23)C1 [Example 747],13
11,"CCOC1=C(C(=O)N[C@@H]2CCCN(c3cc(C4=CCN(C(C)=O)C4)n4ncnc(N)c34)C2)CN(CC(F)(F)C(F)(F)F)C1=O [Example 748, (R)-N-(1-(7-(1-acetyl-2,5-dihydro-1H-pyrrol-3-yl)-4-aminopyrrolo[2,1-f][1,2,4]triazin-5-yl)piperidin-3-yl)~4-ethoxy-5-oxo-1-(2,2,3,3,3-pentafluoropropyl)-2,5-dihydro-1H-pyrrole-3-carboxamide]",318
12,"CC(=O)N1CC=C(c2cc(N3CCC[C@@H](NC(=O)c4cccc(N5CCN(CC(F)F)CC5)n4)C3)c3c(N)ncnn23)C1 [Example 750, (R)-N-(1-(7-(1-acetyl-2,5-dihydro-1H-pyrrol-3-yl)-4-aminopyrrolo[2,1-f][1,2,4]triazin-5-yl)piperidin-3-yl)-6-(4-(2,2-difluoroethyl)piperazin-1-yl)picolinamide]",41

# Source: patent publication US20260250290A1 (BRISTOL-MYERS SQUIBB COMPANY, priority 2023, published 2026)
